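Five compound concentrations were applied to cells in 96-well plates for 48 hours; endpoints were derived by simple linear interpolation of the resulting dose-response curve. GI50 marks 50% less growth.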 Calls of active or inactive are those of the source. Cut-off read from the data, not from the text of the source: active = GI50 up to about 1.1 µM and inactive = higher.
What was measured:
Assay in all cases: NCI anticancer screen, dose series, 48 h
BT-549 = test system: BT-549
SNB-78 = test system: SNB-78
DLD-1 = test system: DLD-1
KM-20L2 = test system: KM-20L2
M19-MEL = test system: M19-MEL
DMS-114 = test system: DMS-114
HOP-18 = test system: HOP-18
DMS-273 = test system: DMS-273
RXF 631 = test system: RXF 631

Cc1ccc(O)c(C2=CC(c3cccc(Br)c3)SC(=N)N2)c1 (stereo not drawn)
GI50 (BT-549): 29.8 µM (inactive)

CCCCCCCCCCCCCCC(O)C[N+](C)(CCO)CCO (stereo not drawn)
GI50 (BT-549): 3.05 µM (inactive)

Cc1cccc(Nc2nc3ccccc3nc2NS(=O)(=O)c2ccccc2)c1
GI50 (BT-549): 40.1 µM (inactive)

COCN1C(N)=C(C(=O)OC(C)(C)C)C2=CC(=O)C=CC21C (stereo not drawn)
GI50 (BT-549): 4.24 µM (inactive)

O=C1N(c2ccccc2)C(=O)C2(SC=NN2Cc2ccccc2)N1c1ccccc1 (stereo not drawn)
GI50 (SNB-78): > 100 µM (inactive) | GI50 (DLD-1): > 100 µM (inactive) | GI50 (KM-20L2): > 100 µM (inactive) | GI50 (M19-MEL): > 100 µM (inactive) | GI50 (DMS-114): > 100 µM (inactive) | GI50 (HOP-18): > 100 µM (inactive)

Cc1ccc(S(=O)(=O)c2c3nc4ccccc4nc3n3c2[nH]c2ccccc23)cc1
GI50 (SNB-78): > 100 µM (inactive) | GI50 (DLD-1): > 100 µM (inactive) | GI50 (KM-20L2): > 100 µM (inactive) | GI50 (M19-MEL): > 100 µM (inactive) | GI50 (DMS-114): > 100 µM (inactive) | GI50 (DMS-273): 88.7 µM (inactive)

CCNc1ccc2c(c1)Cc1ccccc1-2
GI50 (BT-549): 34.5 µM (inactive)

CC(C)N(C(C)C)S(=O)(=O)C[C@]12CC[C@H](CC13OCC(CS(=O)(=O)c1ccccc1)O3)C2(C)C (stereo partly drawn)
GI50 (BT-549): > 85.3 µM (inactive)

Fc1ccc2c(c1)nc1n2C(c2c(Cl)cccc2Cl)SC1 (stereo not drawn)
GI50 (BT-549): 16.7 µM (inactive)

C[C@H](N)C(=O)Nc1ccc(-c2nc3ccccc3s2)cc1
GI50 (BT-549): > 100 µM (inactive)

Cc1nc(C)c(C(=O)NNC(N)=S)cc1C(=O)NNC(N)=S
GI50 (BT-549): > 100 µM (inactive)

Cc1c(-c2ccc(O)cc2)n(CCCCCCNCCOC(=O)NCCCc2ccc(N(CCCl)CCCl)cc2)c2ccc(O)cc12
GI50 (BT-549): 12.4 µM (inactive)

CC1(C)O[C@@H](CCl)C[C@@H](C#N)O1
GI50 (SNB-78): > 100 µM (inactive) | GI50 (DLD-1): > 100 µM (inactive) | GI50 (KM-20L2): > 100 µM (inactive) | GI50 (M19-MEL): > 100 µM (inactive) | GI50 (DMS-114): > 100 µM (inactive) | GI50 (DMS-273): > 100 µM (inactive) | GI50 (HOP-18): > 100 µM (inactive)

COC(OC)c1cccc2c1C1(O)CCC3(CC21)OCCCCO3 (stereo not drawn)
GI50 (SNB-78): > 100 µM (inactive) | GI50 (DLD-1): > 100 µM (inactive) | GI50 (KM-20L2): > 100 µM (inactive) | GI50 (M19-MEL): > 100 µM (inactive) | GI50 (DMS-114): > 100 µM (inactive) | GI50 (DMS-273): > 100 µM (inactive) | GI50 (HOP-18): > 100 µM (inactive)

CC(CCCCNC(=O)OC(C)(C)C)NC(=O)NC(C)CCCCNC(=O)OC(C)(C)C (stereo not drawn)
GI50 (BT-549): > 100 µM (inactive)

CNS(=O)(=O)NN(C)S(=O)(=O)c1ccc(OC)cc1
GI50 (DLD-1): > 100 µM (inactive) | GI50 (KM-20L2): > 100 µM (inactive) | GI50 (M19-MEL): > 100 µM (inactive) | GI50 (RXF 631): > 100 µM (inactive) | GI50 (DMS-114): > 100 µM (inactive) | GI50 (DMS-273): > 100 µM (inactive)

CC12CC3c4ccccc4CN1C3(c1ccccc1)OC2=O (stereo not drawn)
GI50 (BT-549): > 100 µM (inactive)

O=[N+]([O-])c1cccc(/C=N/NC2=CS(=O)(=O)C=C2)c1
GI50 (BT-549): 78.7 µM (inactive)

COc1cc(/C=C2\NC(=O)C(Cc3cc(OC)c(OC)c(C)c3OC)N(C(C)=O)C2=O)c(OC)c(C)c1OC (stereo not drawn)
GI50 (DLD-1): > 100 µM (inactive) | GI50 (KM-20L2): > 100 µM (inactive) | GI50 (M19-MEL): > 100 µM (inactive) | GI50 (DMS-114): 60.5 µM (inactive) | GI50 (DMS-273): > 100 µM (inactive) | GI50 (HOP-18): 28.6 µM (inactive)

CC(C)NC1CCCCC2c3cc(F)ccc3[C@]12O (stereo partly drawn)
GI50 (SNB-78): > 100 µM (inactive) | GI50 (DLD-1): > 100 µM (inactive) | GI50 (KM-20L2): > 100 µM (inactive) | GI50 (M19-MEL): > 100 µM (inactive) | GI50 (DMS-114): > 100 µM (inactive) | GI50 (DMS-273): > 100 µM (inactive) | GI50 (HOP-18): > 100 µM (inactive)

O=C1OC(c2ccccc2)=N/C1=C\c1ccc(Cl)cc1
GI50 (BT-549): > 100 µM (inactive)

O=C1CSC(c2ccccc2O)N1c1nc2cc3sc(N4C(=O)CSC4c4ccccc4O)nc3cc2s1 (stereo not drawn)
GI50 (BT-549): 11.9 µM (inactive)

COc1ccccc1C1=C2C(=O)N(C)C(c3ccccc3OC)=C2C(=O)N1C
GI50 (BT-549): > 100 µM (inactive)

CCOP(=O)(Nc1ccccc1P(=O)(OCC)OCC)OCC
GI50 (BT-549): > 100 µM (inactive)

Cc1ccccc1NC(=O)O/N=C(\Cl)C(C)C
GI50 (BT-549): 5.32 µM (inactive)

COc1cc2c(c(OC)c1OC)C(=O)[C@@H]1[C@H]2N1C(=O)NCCCl
GI50 (BT-549): 80.5 µM (inactive)

CCOC(=O)c1c(N2CCOCC2)[nH]c(=O)c(C(c2c(O)c(C(=O)OCC)c(N3CCOCC3)[nH]c2=O)C(C)C)c1O
GI50 (BT-549): > 100 µM (inactive)

CC(=O)NC1C(OC(C)C(=O)NC(C(=O)NC(CCC(=O)NCCCNC2c3ccccc3Nc3cccc([N+](=O)[O-])c32)C(N)=O)C(C)C)C(O)C(CO)OC1(C)OCc1ccccc1 (stereo not drawn)
GI50 (BT-549): 1.63 µM (inactive)

NCCCN(CCCN)CCc1cn(C(=O)c2ccccc2)cn1
GI50 (BT-549): 12.5 µM (inactive)

C[As+](C)(c1ccc(Br)c([N+](=O)[O-])c1)c1ccc(Br)c([N+](=O)[O-])c1
GI50 (BT-549): > 100 µM (inactive)

CN1CCN(c2ccc3nc(-c4cc(O)c5c(nc(CO)n5C)c4O)[nH]c3n2)CC1
GI50 (BT-549): > 100 µM (inactive)

Cc1nc2c(cc1OCc1ccccc1)C(=O)C1=C(C2=O)C2OC(=O)CC2OC1(C)C (stereo not drawn)
GI50 (BT-549): 0.564 µM (active)

COc1ccc2c3c1C(=O)CCC3CO2 (stereo not drawn)
GI50 (SNB-78): > 100 µM (inactive) | GI50 (DLD-1): > 100 µM (inactive) | GI50 (KM-20L2): > 100 µM (inactive) | GI50 (M19-MEL): > 100 µM (inactive) | GI50 (RXF 631): > 100 µM (inactive) | GI50 (DMS-114): > 100 µM (inactive) | GI50 (DMS-273): > 100 µM (inactive)

C=C(CN(C)C)C(=O)c1ccc(C(=O)C(=C)CN(C)C)cc1
GI50 (DLD-1): > 100 µM (inactive) | GI50 (KM-20L2): > 100 µM (inactive) | GI50 (M19-MEL): > 100 µM (inactive) | GI50 (HOP-18): > 100 µM (inactive)

CSCCC(C(=O)O)N(C)C (stereo not drawn)
GI50 (BT-549): > 100 µM (inactive)

CC(=O)Nc1ccc2c(c1)/C(=C\c1ccc([N+](C)(C)C)cc1)c1ccccc1-2
GI50 (BT-549): 34.3 µM (inactive)
